By IC50 is commonly meant the concentration that inhibits the measured activity by half. High values mean weaker potency, low ones greater potency.

This experiment has as its target T1, IKK-2 (Homo sapiens, UniProt O14920).
T1 construct: made in house; host or cells: baculovirus-infected insect cells (SF9)
T1 sequence (O14920 1-756): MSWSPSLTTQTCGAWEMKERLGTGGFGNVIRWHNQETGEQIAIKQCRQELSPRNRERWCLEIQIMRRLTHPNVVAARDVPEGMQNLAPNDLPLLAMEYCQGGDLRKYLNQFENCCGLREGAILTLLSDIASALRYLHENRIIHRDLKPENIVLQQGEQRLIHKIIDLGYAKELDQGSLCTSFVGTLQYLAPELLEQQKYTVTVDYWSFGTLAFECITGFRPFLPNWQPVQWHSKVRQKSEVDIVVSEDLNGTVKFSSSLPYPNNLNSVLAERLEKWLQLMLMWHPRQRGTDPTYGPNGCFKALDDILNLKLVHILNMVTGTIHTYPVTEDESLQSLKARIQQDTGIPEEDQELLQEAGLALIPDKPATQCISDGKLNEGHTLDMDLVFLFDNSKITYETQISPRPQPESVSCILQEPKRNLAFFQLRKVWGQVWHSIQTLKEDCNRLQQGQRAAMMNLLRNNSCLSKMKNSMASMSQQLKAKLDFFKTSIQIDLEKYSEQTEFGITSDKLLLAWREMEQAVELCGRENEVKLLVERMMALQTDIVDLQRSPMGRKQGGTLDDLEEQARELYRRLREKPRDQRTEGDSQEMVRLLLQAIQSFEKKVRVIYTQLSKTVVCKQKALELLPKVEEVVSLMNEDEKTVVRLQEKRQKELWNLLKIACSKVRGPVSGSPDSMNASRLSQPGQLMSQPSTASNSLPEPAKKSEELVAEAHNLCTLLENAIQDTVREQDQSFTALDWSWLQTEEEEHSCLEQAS
Nature of the experiment: IKK-2 Resin Enzyme Assay (IKK-2 IC50 determination). It is filed as biochemical. The following applies: rhIKK-2 homodimer; biotinylated IκBα peptide 5 μM, 1 μM ATP, 25° C., 30 min. The source says: cDNAs of human IKK-1 and IKK-2 were amplified by reverse transcriptase-polymerase chain reaction from human placental RNA (Clonetech). hIKK-1 was subcloned into pFastBac HTa (Life Technologies) and expressed as N-terminal His6-tagged fusion protein. The hIKK-2 cDNA was amplified using a reverse oligonucleotide primer which incorporated the peptide sequence for a FLAG-epitope tag at the C-terminus of the IKK-2 coding region (DYKDDDDKD). The hIKK-2:FLAG cDNA was subcloned into the baculovirus vector pFastBac. The rhIKK-2 (S177S, E177E) mutant was constructed in the same vector used for wild type rhIKK-2 using a QuikChange™ mutagenesis kit (Stratagene). Viral stocks of each construct were used to infect insect cells grown in 40L suspension culture. […] Cell lysates were stored at −80° C. until purification of the recombinant proteins was undertaken as described below.
A 10-liter culture of baculovirus-expressing IKK-2 tagged with FLAG peptide was centrifuged and the cell pellet (MOI=0.1 and I=72 hrs) was re-suspended in buffer A. These cells were microfluidized, and centrifuged at 100,000×g for 45 min. Supernatant was passed over a G-25 column equilibrated with Buffer A. Protein peak was collected and incubated with anti-FLAG affinity resin on a rotator overnight in buffer B. The resin was washed in batch with 10-15 bed volumes of buffer C. Washed resin was poured into a column and rhIKK-2 homodimer was eluted using 5 bed volumes of buffer B containing FLAG peptide. 5 mM DTT, 0.1% NP-40 and BSA (concentrated to 0.1% in final amount) was added to the eluted enzyme before concentrating in using an Amicon membrane with a molecular weight cut-off of 30 kDa. Enzyme was aliquoted and stored at −80° C.
IKK-2 kinase activity was measured using a biotinylated IκBα peptide (Gly-Leu-Lys-Lys-Glu-Arg-Leu-Leu-Asp-Asp-Arg-His-Asp-Ser32-Gly-Leu-Asp-Ser36-Met-Lys-Asp-Glu-Glu) (American Peptide Co.). 20 ul of the standard reaction mixture contained 5 μM biotinylated IκBA peptide, 0.1 μCi/reaction [γ-^33P] […] ATP was measured using a Top-Count NXT (Packard).
As for `Nc1nc(-c2ccccc2O)cn(C2CCCNC2)c1=O` (stereo not drawn) [Example 1, 3-amino-5-(2-hydroxyphenyl)-1-piperidin-3-ylpyrazin-2(1H)-one], the IC50 is 1080 nM. The same measure for `Nc1nc(-c2ccc(F)cc2O)cn(C2CCCNC2)c1=O` (stereo not drawn) [Example 3, 3-amino-5-(4-fluoro-2-hydroxyphenyl)-1-piperidin-3-ylpyrazin-2(1H)-one]: 1790 nM; for `Nc1nc(-c2cc(F)ccc2O)cn(C2CCCNC2)c1=O` (stereo not drawn) [Example 2, 3-amino-5-(5-fluoro-2-hydroxyphenyl)-1-piperidin-3-ylpyrazin-2(1H)-one]: 903 nM.

The values are drawn from US20070225291A1, “Substituted Pyrazinone Compounds for the Treatment of Inflammation” (Pfizer Inc., priority 2003, published 2007).
